Where two headings read alike, the source gives them in different places.
Assays:
[1] = system: DU 145 prostate tumor cell line; assay: mouse model of prostate cancer, efficacy against established tumors; type: in vivo; conditions: Example 4; DU 145 prostate tumors in mice; COX 125 ppm in feed; VEGF 100 mg/kg p.o. q.d. 5x/week for three weeks
Procedure: (§1) 5-methyl-2-(2′-chloro-6′-fluoro-anilino)-phenyl acetic acid (“COX”) and 1-(4-chloroanilino)-4-(4-pyridylmethyl)phthalazine (“VEGFR”) are tested as single agents and together as combination therapy in a mouse model of prostrate cancer (orthoscopically implanted DU 145 prostate tumor cell line) for efficacy against established tumors. VEGFR is administered to the mice orally at 100 mg/kg, 5 times a week for three weeks, as a suspension in 0.5% microcrystalline cellulose, 0.1% Tween 80 in water. COX is administered in the feed mix at a concentration of 125 ppm.

intestinal polyps = assay: mouse model of adenomatous polyposis, prevention and treatment of intestinal polyps; type: in vivo; conditions: COX 125 ppm in feed ad libitum
Procedure: (§2) 5-methyl-2-(2′-chloro-6′-fluoro-anilino)-phenyl acetic acid (“COX”) and (+)-discodermolide (“disco”) are tested as single agents and together as combination therapy in a mouse model of adenomatous polyposis for the prevention and treatment of intestinal polyps. (+)-Discodermolide is administered once intravenously to the mice at 15 mg/kg as a solution in 16.7% Chremophor EI, 8.3% ethanol, and 75% D5W. COX is administered in the feed mix at a concentration of 125 ppm.
(§3) 5-methyl-2-(2′-chloro-6′-fluoro-anilino)-phenyl acetic acid (“COX”) and (R)-4-(4-((1-phenylethyl)amino)-7H-pyrrolo(2,3-d)pyrimidin-6-yl)-phenol (“EGFR”) are tested as single agents and together as combination therapy in a mouse model of adenomatous polyposis for the prevention and treatment of intestinal polyps. EGFR is administered to the mice orally at 50 mg/kg, as a suspension in 0.5% carboxymethylcellulose, b.i.d., 5 days a week for three weeks. COX is administered in the feed mix at a concentration of 125 ppm.
(§4) 5-methyl-2-(2′-chloro-6′-fluoro-anilino)-phenyl acetic acid (“COX”) and 1-(4-chloroanilino)-4-(4-pyridylmethyl)phthalazine (“VEGFR”) are tested as single agents and together as combination therapy in a mouse model of adenomatous polyposis for the prevention and treatment of intestinal polyps. VEGFR is administered to the mice orally at 100 mg/kg, 5 times a week for three weeks. COX is administered in the feed mix at a concentration of 125 ppm.

[2] = COX 125 ppm in feed ad libitum
Procedure: as §2, §3, §4

[3] = Example 4; DU 145 prostate tumors in mice; COX 125 ppm in feed; VEGF 100 mg/kg p.o. q.d. 5x/week for three weeks
Procedure: as §1

[4] = system: tumor vascular permeability; conditions: studies in humans; cited from earlier work
[5] = Example 1, first experiment, disco 15 mg/kg i.v. once
[6] = Example 1, second (duplicate) experiment, disco 15 mg/kg i.v. once
[7] = Example 2, first experiment, EGFR 50 mg/kg p.o. b.i.d. 5x/week for three weeks
[8] = Example 2, second (duplicate) experiment, EGFR 50 mg/kg p.o. b.i.d. 5x/week for three weeks
[9] = Example 3, first experiment, VEGF 100 mg/kg p.o. 5x/week for three weeks
[10] = Example 3, second (duplicate) experiment, VEGF 100 mg/kg p.o. 5x/week for three weeks

Compound	% T/C (tumors) [1] [%]	Mean Tumor Weight (mg ± SEM) [1] [mg]	% T/C (polyps) (intestinal polyps; [5]) [%]	Mean Intestinal Polyp Count (# ± SEM) (intestinal polyps; [5])	% T/C (polyps) (intestinal polyps; [6]) [%]	Mean Intestinal Polyp Count (# ± SEM) (intestinal polyps; [6])	% T/C (polyps) (intestinal polyps; [7]) [%]	Mean Intestinal Polyp Count (# ± SEM) (intestinal polyps; [7])	% T/C (polyps) (intestinal polyps; [8]) [%]	Mean Intestinal Polyp Count (# ± SEM) (intestinal polyps; [8])	% T/C (polyps) (intestinal polyps; [9]) [%]	Mean Intestinal Polyp Count (# ± SEM) (intestinal polyps; [9])	% T/C (polyps) (intestinal polyps; [10]) [%]	Mean Intestinal Polyp Count (# ± SEM) (intestinal polyps; [10])	Dead/Total [2, 5]	Dead/Total [2, 6]	Dead/Total [2, 7]	Dead/Total [2, 8]	Dead/Total [2, 9]	Dead/Total [2, 10]	other results
Cc1ccc(Nc2c(F)cccc2Cl)c(CC(=O)O)c1 [COX, 5-methyl-2-(2′-chloro-6′-fluoro-anilino)-phenyl acetic acid]	80	343 ± 52	56	15 ± 0.4 #	57	13 ± 0.2 #	43	9 ± 0.4 #	36	12 ± 0.9 #	44	12 ± 0.22 #	44	13 ± 0.18 #	0/7	0/7	0/7	0/7	0/7	0/7	Dead/Total [3]: 1/12
C[C@@H](Nc1ncnc2[nH]c(-c3ccc(O)cc3)cc12)c1ccccc1 [EGFR, (R)-4-(4-((1-phenylethyl)amino)-7H-pyrrolo(2,3-d)pyrimidin-6-yl)-phenol]	–	–	–	–	–	–	37	8 ± 0.2 #	27	9 ± 0.3 #	–	–	–	–	–	–	0/7	0/7	–	–	–
Clc1ccc(Nc2nnc(Cc3ccncc3)c3ccccc23)cc1 [VEGF, 1-(4-chloroanilino)-4-(4-pyridylmethyl)phthalazine]	57	243 ± 37	–	–	–	–	–	–	–	–	57	15 ± 0.48 #	60	17 ± 0.19 #	–	–	–	–	0/6	0/7	tolerability [4]: well tolerated; tumor vascular permeability [4]: reduce tumor vascular permeability; Dead/Total [3]: 1/12
(+)-discodermolide	–	–	56	15 ± 0.2 #	64	15 ± 0.22 #	–	–	–	–	–	–	–	–	0/7	0/7	–	–	–	–	% Body Wt. Change [2, 5]: +0.9 ± 0.1%; % Body Wt. Change [2, 6]: +4.0 ± 0.12%

Source: patent US20110046190A1, “COMBINATIONS COMPRISING A SELECTIVE CYCLOOXYGENASE-2 INHIBITOR” (priority 2001, published 2011)
